{
  "source": "patent US8846084B2",
  "about": "“Controlled release compositions containing zolpidem” (Wockhardt Ltd, priority 2005, dated 2014)",
  "origin": "cited, not measured here",
  "biological_target": "T1, (BZ)1 receptor (Homo sapiens, UniProt P14867+P18507)",
  "T1 sequence (P14867 28-456)": "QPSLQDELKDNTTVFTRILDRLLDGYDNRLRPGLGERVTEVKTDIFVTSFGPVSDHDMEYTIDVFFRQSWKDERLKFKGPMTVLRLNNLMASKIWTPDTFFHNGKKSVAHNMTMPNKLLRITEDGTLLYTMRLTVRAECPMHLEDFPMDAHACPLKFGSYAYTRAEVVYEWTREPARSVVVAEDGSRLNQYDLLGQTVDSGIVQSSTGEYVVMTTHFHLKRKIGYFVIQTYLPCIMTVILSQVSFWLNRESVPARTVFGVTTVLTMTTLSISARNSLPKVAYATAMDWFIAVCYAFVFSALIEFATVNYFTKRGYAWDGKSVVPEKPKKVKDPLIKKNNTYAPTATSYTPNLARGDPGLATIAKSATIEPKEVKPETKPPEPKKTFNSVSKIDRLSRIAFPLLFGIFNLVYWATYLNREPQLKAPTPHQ",
  "T1 sequence (P18507 40-467 limits assumed)": "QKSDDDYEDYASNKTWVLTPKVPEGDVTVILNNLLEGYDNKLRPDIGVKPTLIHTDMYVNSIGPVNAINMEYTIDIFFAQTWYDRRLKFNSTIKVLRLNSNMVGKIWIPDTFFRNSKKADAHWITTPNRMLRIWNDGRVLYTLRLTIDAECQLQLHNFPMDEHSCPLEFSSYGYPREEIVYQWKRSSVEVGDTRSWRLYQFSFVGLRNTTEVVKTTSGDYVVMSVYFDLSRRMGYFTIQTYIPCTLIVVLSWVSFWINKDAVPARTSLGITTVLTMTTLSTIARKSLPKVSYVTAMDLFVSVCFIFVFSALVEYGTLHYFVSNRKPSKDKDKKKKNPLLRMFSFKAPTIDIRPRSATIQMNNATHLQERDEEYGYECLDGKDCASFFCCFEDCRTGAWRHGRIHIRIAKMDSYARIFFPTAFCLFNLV",
  "T1 sequence (P47870 25-512 partner limits assumed)": "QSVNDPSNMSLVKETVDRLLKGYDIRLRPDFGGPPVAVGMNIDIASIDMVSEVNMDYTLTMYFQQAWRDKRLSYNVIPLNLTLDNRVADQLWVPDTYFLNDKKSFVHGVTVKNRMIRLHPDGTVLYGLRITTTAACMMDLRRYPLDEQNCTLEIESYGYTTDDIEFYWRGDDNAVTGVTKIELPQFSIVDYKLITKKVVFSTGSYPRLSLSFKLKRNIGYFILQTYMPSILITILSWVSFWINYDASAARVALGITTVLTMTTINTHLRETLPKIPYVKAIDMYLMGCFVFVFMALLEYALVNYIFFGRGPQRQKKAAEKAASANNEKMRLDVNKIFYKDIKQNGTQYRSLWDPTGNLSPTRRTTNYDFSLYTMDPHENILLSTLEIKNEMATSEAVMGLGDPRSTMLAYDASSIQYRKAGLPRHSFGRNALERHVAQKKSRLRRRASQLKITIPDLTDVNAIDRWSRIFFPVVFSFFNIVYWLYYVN",
  "conditions": "in vitro; affinity ratio of the α1-subunits/α5-subunits",
  "data": [
    {"smiles": "Cc1ccc(-c2nc3ccc(C)cn3c2CC(=O)N(C)C)cc1", "note": "[zolpidem, N,N,6-trimethyl-2-p-tolylimidazo[1,2-a]pyridine-3-acetamide]", "values": [
      {"measurement": "receptor subtype binding preference", "result": "binds the (BZ)1 receptor preferentially with a high affinity ratio"}
    ]}
  ]
}
